Assay results from patent publication US20230212122A1, “MITOCHONDRIAL TARGETING COMPOUNDS FOR THE TREATMENT OF ASSOCIATED DISEASES” (The Regents of the University of Michigan, priority 2020, published 2023).

System: UM16 cell line
Assay: GSEA of Bru-seq data (hallmark, KEGG, GO pathways, transcription factors)
Assay type: cell-based
Parameters: ES KEGG_MISMATCH_REPAIR / ES KEGG_HUNTINGTONS_DISEASE / ES KEGG_ALZHEIMERS_DISEASE / ES KEGG_VIBRIO_CHOLERAE_INFECTION / NES KEGG_VIBRIO_CHOLERAE_INFECTION / ES KEGG_RIBOSOME / NES KEGG_RIBOSOME / NES KEGG_RNA_POLYMERASE: dose or concentration left out as unconfirmed
Description: Consistent with this observation, there are also massive metabolite pathways influenced including starch and sucrose metabolism, glycolysis and gluconeogenesis, purine metabolism, pyrimidine metabolism, N-glycan biosynthesis, etc.

[1] = 5 μM, 4 hours, transcription factors
[2] = GO_AMIDE_BIOSYNTHETIC_PROCESS, 5 μM, 4 hours, FDR q-val 1.55E−04
[3] = GO_CYTOSOLIC_LARGE_RIBOSOMAL_SUBUNIT, 5 μM, 4 hours, FDR q-val 0
[4] = GO_CYTOSOLIC_PART, 5 μM, 4 hours, FDR q-val 0
[5] = GO_CYTOSOLIC_RIBOSOME, 5 μM, 4 hours, FDR q-val 0
[6] = GO_ESTABLISHMENT_OF_PROTEIN_LOCALIZATION_TO_ENDOPLASMIC_RETICULUM, 5 μM, 4 hours, FDR q-val 0
[7] = GO_LARGE_RIBOSOMAL_SUBUNIT, 5 μM, 4 hours, FDR q-val 0
[8] = GO_MATURATION_OF_SSU_RRNA, 5 μM, 4 hours, FDR q-val 6.60E−05
[9] = GO_MULTI_ORGANISM_METABOLIC_PROCESS, 5 μM, 4 hours, FDR q-val 0
[10] = GO_NCRNA_METABOLIC_PROCESS, 5 μM, 4 hours, FDR q-val 0
[11] = GO_NCRNA_PROCESSING, 5 μM, 4 hours, FDR q-val 0
[12] = GO_NUCLEAR_TRANSCRIBED_MRNA_CATABOLIC_PROCESS_NONSENSE_MEDIATED_DECAY, 5 μM, 4 hours, FDR q-val 3.62E−05
[13] = GO_NUCLEOLAR_PART, 5 μM, 4 hours, FDR q-val 0
[14] = GO_PEPTIDE_METABOLIC_PROCESS, 5 μM, 4 hours, FDR q-val 3.46E−05
[15] = GO_PRERIBOSOME, 5 μM, 4 hours, FDR q-val 0
[16] = GO_PROTEIN_LOCALIZATION_TO_ENDOPLASMIC_RETICULUM, 5 μM, 4 hours, FDR q-val 0
[17] = GO_RIBONUCLEOPROTEIN_COMPLEX_BIOGENESIS, 5 μM, 4 hours, FDR q-val 0
[18] = GO_RIBOSOMAL_SMALL_SUBUNIT_BIOGENESIS, 5 μM, 4 hours, FDR q-val 0
[19] = GO_RIBOSOMAL_SUBUNIT, 5 μM, 4 hours, FDR q-val 0
[20] = GO_RIBOSOME, 5 μM, 4 hours, FDR q-val 0
[21] = GO_RIBOSOME_BIOGENESIS, 5 μM, 4 hours, FDR q-val 0
[22] = GO_RRNA_BINDING, 5 μM, 4 hours, FDR q-val 0
[23] = GO_RRNA_METABOLIC_PROCESS, 5 μM, 4 hours, FDR q-val 0
[24] = GO_STRUCTURAL_CONSTITUENT_OF_RIBOSOME, 5 μM, 4 hours, FDR q-val 0
[25] = GO_TRANSLATIONAL_INITIATION, 5 μM, 4 hours, FDR q-val 0
[26] = GO_TRNA_PROCESSING, 5 μM, 4 hours, FDR q-val 3.79E−05
[27] = transcription factor set AAAYWAACM_HFH4_01, 5 μM, 4 hours, FDR q-val 0.013
[28] = transcription factor set AP4_Q5, 5 μM, 4 hours, FDR q-val 0.043
[29] = transcription factor set ATF1_Q6, 5 μM, 4 hours, FDR q-val 0.053
[30] = transcription factor set FAC1_01, 5 μM, 4 hours, FDR q-val 0.043
[31] = transcription factor set FOXO1_01, 5 μM, 4 hours, FDR q-val 0.039
[32] = transcription factor set FOXO3——01, 5 μM, 4 hours, FDR q-val 0.015
[33] = transcription factor set FREAC2_01, 5 μM, 4 hours, FDR q-val 0.008
[34] = transcription factor set HFH3_01, 5 μM, 4 hours, FDR q-val 0.042
[35] = transcription factor set OCT_Q6, 5 μM, 4 hours, FDR q-val 0.051
[36] = transcription factor set RTAAACA_FREAC2_01, 5 μM, 4 hours, FDR q-val 0.025

CCOC(=O)[C@@H]1CCCN(S(=O)(=O)c2ccc(S(=O)(=O)N(CC)CC)cc2)C1 [DX2-201, ethyl (R)-1-((4-(N,N-diethylsulfamoyl)phenyl)sulfonyl)piperidine-3-carboxylate]
ES E2F1_Q6 [1]: −0.355 | ES E2F1_Q6_01 [1]: −0.352 | ES E2F_03 [1]: −0.360 | ES E2F_Q6 [1]: −0.352 | ES GGAANCGGAANY_UNKNOWN [1]: −0.409 | ES MYCMAX_01 [1]: −0.425 | ES MYC_Q2 [1]: −0.429 | ES NMYC_01 [1]: −0.350 | ES SGCGSSAAA_E2F1DP2_01 [1]: −0.373 | ES YY1_Q6 [1]: −0.372 | NES E2F1_Q6 [1]: −1.568 | NES E2F1_Q6_01 [1]: −1.578 | NES E2F_03 [1]: −1.597 | NES E2F_Q6 [1]: −1.565 | NES GGAANCGGAANY_UNKNOWN [1]: −1.661 | NES MYCMAX_01 [1]: −1.853 | NES MYC_Q2 [1]: −1.792 | NES NMYC_01 [1]: −1.545 | NES SGCGSSAAA_E2F1DP2_01 [1]: −1.581 | NES YY1_Q6 [1]: −1.643 | ES KEGG_ALZHEIMERS_DISEASE (4 hours): −0.3872 | ES KEGG_HUNTINGTONS_DISEASE (4 hours): −0.4035 | ES KEGG_MISMATCH_REPAIR (4 hours): −0.6381 | ES KEGG_RIBOSOME (4 hours): −0.6266 | ES KEGG_VIBRIO_CHOLERAE_INFECTION (4 hours): −0.4430 | NES KEGG_RIBOSOME (4 hours): −2.4526 | NES KEGG_RNA_POLYMERASE (4 hours): −1.9613 | NES KEGG_VIBRIO_CHOLERAE_INFECTION (4 hours): −1.4689 | DNA repair and mismatch repair gene sets (Bru-seq) (4 hours of treatment): downregulated | glycolysis pathway (Bru-seq) (4 hours of treatment): dramatically upregulated | myc target gene sets and E2F target gene set (Bru-seq) (4 hours of treatment): downregulated | oxidative phosphorylation (Bru-seq) (4 hours of treatment): significantly downregulated | ES [2]: −0.454 | NES [2]: −2.193 | ES [3]: −0.629 | NES [3]: −2.298 | ES [4]: −0.537 | NES [4]: −2.371 | ES [5]: −0.626 | NES [5]: −2.548 | ES [6]: −0.589 | NES [6]: −2.417 | ES [7]: −0.585 | NES [7]: −2.298 | ES [8]: −0.642 | NES [8]: −2.206 | ES [9]: −0.557 | NES [9]: −2.388 | ES [10]: −0.528 | NES [10]: −2.591 | ES [11]: −0.594 | NES [11]: −2.802 | ES [12]: −0.539 | NES [12]: −2.231 | ES [13]: −0.630 | NES [13]: −2.294 | ES [14]: −0.461 | NES [14]: −2.222 | ES [15]: −0.648 | NES [15]: −2.348 | ES [16]: −0.563 | NES [16]: −2.329 | ES [17]: −0.552 | NES [17]: −2.663 | ES [18]: −0.653 | NES [18]: −2.377 | ES [19]: −0.581 | NES [19]: −2.491 | ES [20]: −0.589 | NES [20]: −2.626 | ES [21]: −0.616 | NES [21]: −2.869 | ES [22]: −0.650 | NES [22]: −2.367 | ES [23]: −0.604 | NES [23]: −2.757 | ES [24]: −0.539 | NES [24]: −2.395 | ES [25]: −0.590 | NES [25]: −2.521 | ES [26]: −0.559 | NES [26]: −2.240 | ES [27]: 0.431 | NES [27]: 1.896 | ES [28]: 0.393 | NES [28]: 1.743 | ES (transcription factor set AP4_Q6, 5 μM, 4 hours, FDR q-val 0.078): 0.377 | ES (transcription factor set AREB6_04, 5 μM, 4 hours, FDR q-val 0.098): 0.346 | ES [29]: 0.383 | NES [29]: 1.701 | ES (transcription factor set E47_01, 5 μM, 4 hours, FDR q-val 0.060): 0.363 | ES [30]: 0.394 | NES [30]: 1.751 | ES (transcription factor set FOXJ2_02, 5 μM, 4 hours, FDR q-val 0.090): 0.364 | ES [31]: 0.384 | NES [31]: 1.732 | ES (transcription factor set FOXO1_02, 5 μM, 4 hours, FDR q-val 0.007): 0.459 | ES [32]: 0.417 | NES [32]: 1.860 | ES (transcription factor set FOXO4_01, 5 μM, 4 hours, FDR q-val 0.014): 0.464 | ES (transcription factor set FOXO4_02, 5 μM, 4 hours, FDR q-val 0.007): 0.454 | ES [33]: 0.440 | NES [33]: 1.964 | ES (transcription factor set FREAC3_01, 5 μM, 4 hours, FDR q-val 0.058): 0.375 | ES [34]: 0.401 | NES [34]: 1.733 | ES (transcription factor set HNF3_Q6, 5 μM, 4 hours, FDR q-val 0.073): 0.392 | ES (transcription factor set NKX62_Q2, 5 μM, 4 hours, FDR q-val 0.058): 0.387 | ES (transcription factor set OCT1_Q5_01, 5 μM, 4 hours, FDR q-val 0.094): 0.357 | ES [35]: 0.381 | NES [35]: 1.697 | ES (transcription factor set PAX2_02, 5 μM, 4 hours, FDR q-val 0.061): 0.374 | ES [36]: 0.344 | NES [36]: 1.816 | ES (transcription factor set RYCACNNRNNRNCAG_UNKNOWN, 5 μM, 4 hours, FDR q-val 0.075): 0.462 | ES (transcription factor set TTANWNANTGGM_UNKNOWN, 5 μM, 4 hours, FDR q-val 0.051): 0.511 | ES (transcription factor set YWATTWNNRGCT_UNKNOWN, 5 μM, 4 hours, FDR q-val 0.059): 0.482
